Measurements from patent US20100120789A1, “Compound” (priority 2005, published 2010).

Structure (SMILES) | melting point
O=C(N1CCN(c2ccccn2)CC1)C12CC3CC(CC(C3)C1)C2 [STX2065, Adamantan-1-yl-(4-pyridin-2-yl-piperazin-1-yl)-methanone] | 137 to 140 °C
CN(Cc1ccc(Cl)s1)C(=O)CC12CC3CC(CC(C3)C1)C2 | 73.5 to 75 °C
CC12CC3CC(C)(C1)CC(C(=O)NCCc1cccs1)(C3)C2 [STX1672, 3,5-Dimethyl-adamantane-1-carboxylic acid(2-thiophen-2-yl-ethyl)-amide] | 131 to 132 °C
O=C(Cc1ccc(OCC(=O)C23CC4CC(CC(C4)C2)C3)cc1)Nc1ccccc1 | 153.4 °C
CC(C)(C)c1ccc(CS(=O)(=O)CC(=O)C23CC4CC(CC(C4)C2)C3)cc1 | 127.7 °C
CN(Cc1cccn1C)C(=O)CC12CC3CC(CC(C3)C1)C2 [STX2407, 2-Adamantan-1-yl-N-methyl-N-(1-methyl-1H-pyrrol-2-ylmethyl)-acetamide] | 75 to 76.5 °C
O=C(COCc1cccs1)C12CC3CC(CC(C3)C1)C2 [STX1692, 1-Adamantan-1-yl-2-(thiophen-2-ylmethoxy)-ethanone] | 57.2 to 58.3 °C
COc1cc2c(cc1O)CCN(C(=O)C13CC4CC(CC(C4)C1)C3)C2 | 224 to 228 °C
COc1ccc(OCc2cn(C34CC5CC(CC(C5)C3)C4)nn2)cc1OC [STX1893, 1-Adamantan-1-yl-4-(3,4-dimethoxy-phenoxymethyl)-1H-[1,2,3]triazole] | 108 to 112 °C
Cc1csc(CN(C)C(=O)C23CC4CC(CC(C4)C2)C3)c1 [STX2254, Adamantane-1-carboxylic acid methyl-(4-methyl-thiophen-2-ylmethyl)-amide] | 87 to 88 °C
CC(=O)Nc1ccc(OCC(=O)C23CC4CC(CC(C4)C2)C3)cc1Cl | 204 to 206 °C
Cc1nc2c(NC(=O)C34CC5CC(CC(C5)C3)C4)c(C)ccc2s1 [STX1372, Adamantane-1-carboxylic acid (2,5-dimethyl-benzothiazol-4-yl)-amide] | 183.5 to 185 °C
O=C(Nc1nccs1)C12CC3CC(CC(C3)C1)C2 [STX2401, Adamantane-1-carboxylic acid thiazol-2-ylamide] | 200 to 201 °C
CN(Cc1ccco1)C(=O)C12CC3CC(CC(C3)C1)C2 [STX2247, Adamantane-1-carboxylic acid furan-2-ylmethyl-methyl-amide] | 53.5 to 54.5 °C
O=C(NCCc1cccs1)[C@H]1CC2C=CC1C2 (stereo partly drawn) [STX1707, Bicyclo[2.2.1]hept-5-ene-2-carboxylic acid(2-thiophen-2-yl-ethyl)-amide (exo)] | 71 to 72 °C
CC1(C(=O)NCc2cccs2)CCCCC1 [STX1642, 1-Methyl-cyclohexanecarboxylic acid(thiophen-2-ylmethyl)-amide] | 72 to 73 °C
Cc1nc2cc(NCC(=O)C3(C)CC3)ccc2s1 | 116 to 120 °C
CNC(=O)c1ccc(CN(C)C(=O)C23CC4CC(CC(C4)C2)C3)s1 | 211 to 211.5 °C
O=C(NCc1ccccc1)c1ccc(OCC(=O)C23CC4CC(CC(C4)C2)C3)cc1 | 145.6 °C
O=C(NCc1ccc(Cl)cc1)C12CC3CC(CC(C3)C1)C2 | 150 to 153 °C
CC12CC3CC(C)(C1)CC(C(=O)NCc1cccs1)(C3)C2 [STX1671, 3,5-Dimethyl-adamantane-1-carboxylic acid(thiophen-2-ylmethyl)-amide] | 101 to 103 °C

Structure (SMILES) | melting point
O=C(NCCc1cccs1)NC12CC3CC(CC(C3)C1)C2 [STX1714, 1-Adamantan-1-yl-3-(2-thiophen-2-yl-ethyl)-urea] | 138 to 142 °C
CC(=O)Nc1ccc([S+]([O-])CC(=O)C23CC4CC(CC(C4)C2)C3)cc1 (stereo not drawn) | 173.5 to 175.5 °C
O=S(=O)(NCC12CC3CC(CC(C3)C1)C2)c1cc(Cl)ccc1Cl [STX1369, N-Adamantan-1-ylmethyl-2,5-dichloro-benzenesulfonamide] | 197 to 198 °C
CC(C)(C)C(=O)NCc1cccs1 [STX1673, 2,2-Dimethyl-N-thiophen-2-ylmethyl-propionamide] | 64 to 65 °C
O=C(N1CCc2sccc2C1)C12CC3CC(CC(C3)C1)C2 [STX1721, Adamantan-1-yl-(6,7-dihydro-4H-thieno[3,2-c]pyridin-5-yl)-methanone] | 141 to 143 °C
O=C(NCc1ccc(Cl)cc1)C1CCN(C(=O)C23CC4CC(CC(C4)C2)C3)CC1 [STX2306, 1-(Adamantane-1-carbonyl)-piperidine-4-carboxylic acid 4-chloro-benzylamide] | 150 to 152 °C
Cc1cccc(CN2CCN(C(=O)C34CC5CC(CC(C5)C3)C4)CC2)c1 | 185 to 187 °C
Cc1ccc(CNC(=O)C23CC4CC(CC(C4)C2)C3)cc1 | 137 to 140 °C
CCCc1ccc(S(=O)(=O)NCC23CC4CC(CC(C4)C2)C3)cc1 [STX1368, N-Adamantan-1-ylmethyl-4-propyl-benzenesulfonamide] | 148 to 149 °C
CN(CCc1ccccn1)C(=O)CC12CC3CC(CC(C3)C1)C2 | 59 to 60 °C
O=C(NCCc1cccs1)C12CC3CC(CC(C3)C1)C2 [STX1375, Adamantane-1-carboxylic acid (2-thiophen-2-yl-ethyl)-amide] | 123 to 126 °C
O=C(O)c1cccc(OCC(=O)C23CC4CC(CC(C4)C2)C3)c1 [STX2361, 3-(2-Adamantan-1-yl-2-oxo-ethoxy)-benzoic acid] | 156.2 °C
Cn1ccnc1S(=O)(=O)CC(=O)C12CC3CC(CC(C3)C1)C2 [STX2294, 1-Adamantan-1-yl-2-(1-methyl-1H-imidazole-2-sulfonyl)-ethanone] | 124 to 125 °C
O=C(NCCc1cccs1)C12CC3CC(CC(O)(C3)C1)C2 [STX1676, 3-Hydroxy-adamantane-1-carboxylic acid(2-thiophen-2-yl-ethyl)-amide] | 118 to 119 °C
O=S(=O)(Cc1cn(C23CC4CC(CC(C4)C2)C3)nn1)c1cc(Cl)ccc1Cl | 198 to 199 °C
O=C(Nc1ccccc1)c1ccc(OCC(=O)C23CC4CC(CC(C4)C2)C3)cc1 | 184.3 °C
Cc1ccc(CNC(=O)CC23CC4CC(CC(C4)C2)C3)cc1 | 139 to 142 °C
O=C(NCc1ccco1)c1ccc(OCC(=O)C23CC4CC(CC(C4)C2)C3)cc1 | 162.2 °C
CC(C(=O)NCc1cccs1)(c1ccccc1)c1ccccc1 [STX1640, 2,2-Diphenyl-N-thiophen-2-ylmethyl-propionamide] | 90 to 91 °C
CCN(CC)C(=O)c1ccc(OCC(=O)C23CC4CC(CC(C4)C2)C3)cc1 [STX2375, 4-(2-Adamantan-1-yl-2-oxo-ethoxy)-N,N-diethyl-benzamide] | 103.9 °C
CN(Cc1ccc(Cl)cc1)C(=O)CC12CC3CC(CC(C3)C1)C2 | 75 to 76 °C

Structure (SMILES) | melting point
CN(Cc1cn(C23CC4CC(CC(C4)C2)C3)nn1)Cc1cccs1 | 66 to 68 °C
Cc1c(Cl)cccc1S(=O)(=O)NCC12CC3CC(CC(C3)C1)C2 [STX1370, N-Adamantan-1-ylmethyl-3-chloro-2-methyl-benzenesulfonamide] | 183 to 184 °C
COC(=O)c1ccc(COCC(=O)C23CC4CC(CC(C4)C2)C3)cc1 | 88.7 °C
CN(Cc1cccs1)C(=O)C12CC3CC(CC(O)(C3)C1)C2 | 88 to 91 °C
CN(C)C(=O)c1ccc(CN(C)C(=O)C23CC4CC(CC(C4)C2)C3)s1 | 145 to 146 °C
CN(Cc1ccsc1)C(=O)CC12CC3CC(CC(C3)C1)C2 [STX2406, 2-Adamantan-1-yl-N-methyl-N-thiophen-3-ylmethyl-acetamide] | 69 to 71 °C
O=C(C[S+]([O-])c1cccs1)C12CC3CC(CC(C3)C1)C2 (stereo not drawn) [STX1930, 1-Adamantan-1-yl-2-(thiophene-2-sulfinyl)-ethanone] | 114 to 115.5 °C
CC1(C(=O)NCc2cccs2)CC1 [STX1641, 1-Methyl-cyclopropanecarboxylic acid (thiophen-2-yl methyl)-amide] | 70 to 71 °C
CC(C)(C)C(=O)NCCc1cccs1 [STX1674, 2,2-Dimethyl-N-(2-thiophen-2-yl-ethyl)-propionamide] | 79 to 80 °C
CC(=O)Nc1ccc(NCC(=O)C23CC4CC(CC(C4)C2)C3)cc1 [STX2241, N-[4-(2-Adamantan-1-yl-2-oxo-ethylamino)-phenyl]acetamide] | 156 to 158 °C
CN(CCc1ccccn1)C(=O)C12CC3CC(CC(C3)C1)C2 [STX1887, Adamantane-1-carboxylic acid methyl-(2-pyridin-2-yl-ethyl)-amide] | 64 to 65 °C
O=C(NC12CC3CC(CC(C3)C1)C2)OCCc1cccs1 [STX1712, Adamantan-1-yl-carbamic acid 2-thiophen-2-yl-ethyl ester] | 67 to 69 °C
O=C(CC12CC3CC(CC(C3)C1)C2)N1CCN(Cc2ccc(Cl)cc2)CC1 [STX2402, 2-Adamantan-1-yl-1-[4-(4-chloro-benzyl)-piperazin-1-yl]-ethanone] | 119 to 121 °C
Cn1ccnc1SCC(=O)C12CC3CC(CC(C3)C1)C2 [STX1898, 1-Adamantan-1-yl-2-(1-methyl-1H-imidazol-2-ylsulfanyl)-ethanone] | 65 to 69 °C
CC(C)N(Cc1cccs1)C(=O)C12CC3CC(CC(C3)C1)C2 | 156 to 158 °C
COC(=O)Cc1ccc(OCC(=O)C23CC4CC(CC(C4)C2)C3)cc1 [STX2320, [4-(2-Adamantan-1-yl-2-oxo-ethoxy)-phenyl]-acetic acid methyl ester] | 71.9 °C
Cc1cccc(CS(=O)(=O)CC(=O)C23CC4CC(CC(C4)C2)C3)c1 | 132.8 °C
CCN(Cc1cccs1)C(=O)C12CC3CC(CC(C3)C1)C2 | 103 to 105 °C
O=S(=O)(NC12CC3CC(CC(C3)C1)C2)c1ccc(-c2ccccc2)cc1 [STX1344, Biphenyl-4-sulfonic acid adamantan-1-ylamide] | 205 to 205.5 °C
O=C(Nc1cccnc1)C12CC3CC(CC(C3)C1)C2 [STX2399, Adamantane-1-carboxylic acid pyridin-3-ylamide] | 129 to 131 °C
CN(Cc1cccs1)C(=O)CSC12CC3CC(CC(C3)C1)C2 | 51 to 53 °C
